Each structure is given as a SMILES string.

The experiment deals with T1, Human Recombinant Matriptase 2 (Homo sapiens, UniProt Q8IU80).
T1 construct: made in house
T1 sequence (Q8IU80 1-811): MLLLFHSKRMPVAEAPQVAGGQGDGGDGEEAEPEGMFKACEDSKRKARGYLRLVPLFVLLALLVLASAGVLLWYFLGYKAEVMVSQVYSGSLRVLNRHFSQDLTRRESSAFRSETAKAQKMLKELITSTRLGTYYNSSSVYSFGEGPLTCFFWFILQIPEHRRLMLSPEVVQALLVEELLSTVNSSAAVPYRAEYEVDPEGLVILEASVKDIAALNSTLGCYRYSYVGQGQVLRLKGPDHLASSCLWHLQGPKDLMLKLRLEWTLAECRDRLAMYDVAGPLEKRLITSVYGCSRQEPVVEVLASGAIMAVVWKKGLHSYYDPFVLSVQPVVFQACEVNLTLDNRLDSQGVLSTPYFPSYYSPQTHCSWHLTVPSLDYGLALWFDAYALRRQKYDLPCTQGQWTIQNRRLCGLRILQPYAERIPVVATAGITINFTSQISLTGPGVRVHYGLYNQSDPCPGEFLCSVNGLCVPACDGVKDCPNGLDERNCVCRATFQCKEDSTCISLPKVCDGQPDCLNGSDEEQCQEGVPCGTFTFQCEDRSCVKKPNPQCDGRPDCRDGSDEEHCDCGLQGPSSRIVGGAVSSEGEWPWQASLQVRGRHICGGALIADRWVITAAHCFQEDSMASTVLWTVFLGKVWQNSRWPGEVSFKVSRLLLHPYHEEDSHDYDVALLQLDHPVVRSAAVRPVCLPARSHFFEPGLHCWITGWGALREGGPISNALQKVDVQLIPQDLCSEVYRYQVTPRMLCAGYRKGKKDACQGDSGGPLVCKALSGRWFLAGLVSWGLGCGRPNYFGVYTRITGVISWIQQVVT
Put plainly: Matriptase 2 inhibition, fluorescence based assay (Method I). It is filed as biochemical. The settings on record: Table A; Ki of Matriptase-2 given as class symbols; read-out: Mat-2 Ki. Summed up: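 In-house recombinant enzyme (3.5 nM), preincubated 30 min with compound, then Boc-Gln-Ala-Arg-AMC substrate (62 μM) in 50 mM Tris pH 7.5, 150 mM NaCl, 0.01% gelatin, 1% DMSO, 25 °C. Fluorescence (Ex 360/Em 480 nm) read 60 min after substrate; IC50 from variable-slope sigmoidal fit of % inhibition.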
As to `CN1CCC(COC(=O)c2cc3ccc(CN)cc3n2Cc2cc(NS(=O)(=O)Cc3ccsc3)cc3ccccc23)CC1` [Compound 374, (1-methylpiperidin-4-yl)-methyl 6-(aminomethyl)-1-({3-[(thiophen-3-yl)-methanesulfonamido]-naphthalen-1-yl}methyl)-1H-indole-2-carboxylate], the Ki was at most 100 nM.

As for `Cc1cccc(C)c1CS(=O)(=O)Nc1cc(Cn2c(C(=O)OCC3CCN(C)CC3)cc3ccc(CN)cc32)c2ccccc2c1` [Compound 375, (1-methylpiperidin-4-yl)-methyl 6-(aminomethyl)-1-({3-[(2,6-dimethyl-phenyl)methanesulfon-amido)naphthalen-1-yl}-methyl)-1H-indole-2-carboxylate], the Ki was at most 100 nM.

Turning to `CN1CCC(COC(=O)c2cc3ccc(CN)cc3n2Cc2cc(NS(=O)(=O)Cc3ccccc3)cc3ccccc23)CC1` [Compound 376, (1-methylpiperidin-4-yl)-methyl 6-(aminomethyl)-1-1{[3-(phenylmethane-sulfonamido)naphthalen-1-yl]methyl}-1H-indole-2-carboxylate], the Ki is at most 100 nM.

For `Cc1cccc(C)c1CS(=O)(=O)Nc1cc(Cn2c(C(=O)OCCC3CCN(C)CC3)cc3ccc(CN)cc32)c2ccccc2c1` [Compound 377, 2-(1-methylpiperidin-4-yl)ethyl 6-(aminometh-yl)-1-({3-[(2,6-dimethyl-phenyl)methanesulfon-amido]naphthalen-1-yl}-methyl)-1H-indole-2-carboxylate], the inhibitory constant (Ki) is at most 100 nM.

With `C[C@H](c1ccccc1)S(=O)(=O)Nc1cc(Cn2c(C(=O)OCC3CCN(C)CC3)cc3ccc(CN)cc32)c2ccccc2c1` [Compound 378, (1-methylpiperidin-4-yl)-methyl 6-(aminomethyl)-1-({3-[(1R)-1-phenyl-ethane-sulfonamido]-naphthalen-1-yl}methyl)-1H-indole-2-carboxylate], the Ki was at most 100 nM.

Turning to `CN1CCC(COC(=O)c2cc3ccc(CN)cc3n2Cc2cc(NS(=O)(=O)Cc3cccs3)cc3ccccc23)CC1` [Compound 379, (1-methylpiperidin-4-yl)-methyl 6-(aminomethyl)-1-({3-[(thiophen-2-yl)-methanesulfonamido]-naphthalen-1-yl}meth-yl)-1H-indole-2-carbox-ylate], the inhibition constant (Ki) was at most 100 nM.

Turning to `Cn1ccnc1COC(=O)c1cc2ccc(CN)cc2n1Cc1cc(NS(=O)(=O)Cc2ccsc2)cc2ccccc12` [Compound 381, (1-methyl-1H-imidazol-2-yl)methyl 6-(amino-methyl)-1-({3-[(thio-phen-3-yl)methanesulfon-amido]naphthalen-1-yl}-methyl)-1H-indole-2-carboxylate], the Ki was at most 100 nM.

For the compound `Cn1ccnc1COC(=O)c1cc2ccc(CN)cc2n1Cc1cc(NS(=O)(=O)Cc2ccccc2)cc2ccccc12` [Compound 383, (1-methyl-1H-imidazol-2-yl)methyl 6-(amino-methyl)-1-{[3-(phenyl-methanesulfonamido)-naphthalen-1-yl]meth-yl}-1H-indole-2-carbox-ylate], the Ki is at most 100 nM.

As for `CN(C)CCCCOC(=O)c1cc2ccc(CN)cc2n1Cc1cc(NS(=O)(=O)Cc2ccccc2)cc2ccccc12` [Compound 384, 4-(dimethylamino)butyl 6-(aminomethyl)-1-{[3-(phenylmethanesulfon-amido)naphthalen-1-yl]-methyl}-1H-indole-2-carboxylate], the inhibition constant Ki lay in the range of 100 to 500 nM.

Turning to `CC(C)(C)n1cncc1COC(=O)c1cc2ccc(CN)cc2n1Cc1cc(NS(=O)(=O)Cc2ccsc2)cc2ccccc12` [Compound 385, (1-tert-butyl-1H-imid-azol-5-yl)methyl 6-(aminomethyl)-1-({3-[(thiophen-3-yl)methane-sulfonamido]naphthalen-1-yl}methyl)-1H-indole-2-carboxylate], the Ki lay in the range of 100 to 500 nM.

Values taken from patent US20240400553A1, “AMINE BASED MATRIPTASE 2 INHIBITORS AND USES THEREOF” (Disc Medicine, Inc., priority 2023, published 2024).
